Series [1] addresses T1, 5-HT2C (Homo sapiens, UniProt P28335).
T1 sequence (P28335 33-458): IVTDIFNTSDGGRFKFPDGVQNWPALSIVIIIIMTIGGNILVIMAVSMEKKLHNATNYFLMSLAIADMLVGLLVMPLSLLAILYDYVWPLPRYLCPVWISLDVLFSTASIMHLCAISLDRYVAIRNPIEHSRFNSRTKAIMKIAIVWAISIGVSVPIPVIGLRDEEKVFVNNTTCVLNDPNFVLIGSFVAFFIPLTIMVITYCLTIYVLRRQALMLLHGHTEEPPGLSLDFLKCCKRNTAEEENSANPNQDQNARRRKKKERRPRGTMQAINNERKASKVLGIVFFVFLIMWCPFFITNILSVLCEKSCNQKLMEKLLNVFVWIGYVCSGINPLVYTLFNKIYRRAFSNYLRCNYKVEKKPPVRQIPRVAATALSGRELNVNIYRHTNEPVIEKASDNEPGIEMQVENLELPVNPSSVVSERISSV
The series can be described thus: cell-based. Also on record: expressed in transfected cells; host or cells: HEK293T. Conditions: for Emax: read-out: % efficacy vs 5-HT@ 100%, 5-HT2C.

Series [2] deals with T2, 5-HT2A (Homo sapiens, UniProt P28223). The experiment in a line: 5-HT2 Gq-Dissociation BRET assay. Conditions: for Emax: read-out: % efficacy vs 5-HT@ 100%, 5-HT2A; for IC50: HEK293T cells, 1 hour at 37° C. The class given is cell-based. On the set-up: expressed in transfected cells; host or cells: HEK293T.
Series [3] concerns the target T3, 5-HT2B (Homo sapiens, UniProt P41595). The series can be described thus: cell-based. It counts as cell-based. Also on record: expressed in transfected cells; host or cells: HEK293T. Conditions: for Emax: 1 h, read-out: % efficacy vs 5-HT@ 100%, 5-HT2B; for IC50: HEK293T cells, 1 hour at 37° C., read-out: IC50 nM 5-HT2 Gq Dissociation BRET assay, 5-HT2B.
Series [4] deals with T1, 5-HT2C. Conditions: read-out: agonist potency at human 5-HT2C receptor; cited from earlier work.
A further series relates to patients. Conditions: cited from earlier work.
The test system of another series is dopamine receptors. Conditions: cited from earlier work.
Another series has as its target T4, 5-HT3 (Homo sapiens, UniProt P46098).
T4 sequence (P46098 24-478): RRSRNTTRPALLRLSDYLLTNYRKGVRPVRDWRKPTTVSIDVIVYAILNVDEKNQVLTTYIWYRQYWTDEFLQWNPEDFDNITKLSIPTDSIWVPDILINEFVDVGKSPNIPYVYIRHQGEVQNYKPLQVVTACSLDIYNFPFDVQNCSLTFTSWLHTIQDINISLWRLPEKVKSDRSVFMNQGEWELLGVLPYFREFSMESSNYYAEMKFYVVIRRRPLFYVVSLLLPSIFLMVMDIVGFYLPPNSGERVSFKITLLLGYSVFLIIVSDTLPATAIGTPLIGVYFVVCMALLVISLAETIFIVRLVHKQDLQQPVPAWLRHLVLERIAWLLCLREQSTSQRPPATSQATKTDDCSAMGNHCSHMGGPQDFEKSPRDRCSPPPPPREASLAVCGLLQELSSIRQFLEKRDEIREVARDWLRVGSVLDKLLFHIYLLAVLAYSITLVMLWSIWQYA
Conditions: read-out: Ki 5-HT3; cited from earlier work.

The target of series [5] is T3, 5-HT2B. Conditions: relative to serotonin at 100%; cited from earlier work.
Series [6] deals with T2, 5-HT2A. Conditions: relative to serotonin at 100%; cited from earlier work.
Where [7] appears, read: HEK293T cells, 1 hour at 37° C., read-out: IC50 nM 5-HT2 Gq Dissociation BRET assay, 5-HT2C.

Structures can show the parent of a compound that is named as a salt. Where two headings read alike, the source gives them in different places.

T3 sequence (P41595 whole entry): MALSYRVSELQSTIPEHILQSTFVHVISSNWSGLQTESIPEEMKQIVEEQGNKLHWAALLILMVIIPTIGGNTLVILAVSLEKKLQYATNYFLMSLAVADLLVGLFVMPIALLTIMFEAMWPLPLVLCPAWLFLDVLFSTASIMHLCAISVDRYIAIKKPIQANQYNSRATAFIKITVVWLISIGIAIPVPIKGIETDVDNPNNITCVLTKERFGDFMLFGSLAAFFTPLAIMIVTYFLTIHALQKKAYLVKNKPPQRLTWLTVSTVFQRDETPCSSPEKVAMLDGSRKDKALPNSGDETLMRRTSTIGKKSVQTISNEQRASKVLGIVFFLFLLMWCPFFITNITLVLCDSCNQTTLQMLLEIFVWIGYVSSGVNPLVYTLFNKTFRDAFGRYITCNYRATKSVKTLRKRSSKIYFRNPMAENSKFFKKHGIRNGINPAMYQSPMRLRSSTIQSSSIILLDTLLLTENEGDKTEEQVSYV
T2 sequence (P28223 whole entry): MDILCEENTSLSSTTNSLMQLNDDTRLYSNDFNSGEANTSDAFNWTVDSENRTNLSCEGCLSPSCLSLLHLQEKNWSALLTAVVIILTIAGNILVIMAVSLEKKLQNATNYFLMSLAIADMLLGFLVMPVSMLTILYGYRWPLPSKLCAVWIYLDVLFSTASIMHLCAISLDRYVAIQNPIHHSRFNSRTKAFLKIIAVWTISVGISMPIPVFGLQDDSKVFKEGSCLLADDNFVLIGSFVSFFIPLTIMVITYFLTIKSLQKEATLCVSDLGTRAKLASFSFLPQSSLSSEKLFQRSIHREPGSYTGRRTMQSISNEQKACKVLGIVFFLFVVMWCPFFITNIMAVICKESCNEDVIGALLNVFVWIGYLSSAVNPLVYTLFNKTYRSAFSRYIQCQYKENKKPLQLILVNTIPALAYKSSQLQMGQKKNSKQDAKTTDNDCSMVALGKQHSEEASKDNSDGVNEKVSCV

Regarding `CN(C)CCc1cn(C)c2cccc(O)c12` [Example 1, 3-(2-(dimethylamino)ethyl)-1-methyl-1H-indol-4-ol, reference compound], the EC50 at 5-HT2C [1] (found by the inventors, read-out: functional potency at human 5-HT2C receptors) is around 10 nM; at 5-HT2A [2] (found by the inventors, read-out: potency at 5-HT2A receptors) it was around 86 nM.
For the compound `CN(C)CCc1cn(C)c2cccc(O)c12` [Example 1, 3-(2-(dimethylamino)ethyl)-1-methyl-1H-indol-4-ol], the Emax at 5-HT2C [1] came out at 92%; on 5-HT2B [3] it was 40%; at 5-HT2A [2], 73%.
On to `CN(C)CCc1cn(CC(F)F)c2cccc(O)c12` [Example 3, 1-(2,2-difluoroethyl)-3-(2-(dimethylamino)ethyl)-1H-indol-4-ol], for which the IC50 on 5-HT2C [1] (setting [7]) amounted to 2.7 nM; against 5-HT2A [2] it was 188 nM. For the same compound, the Emax at 5-HT2C [1] is 80%; at 5-HT2A [2], 48%. The “5-HT2 Gq Dissociation BRET assay, 5-HT2B, activity class” value (“5-HT2 Gq Dissociation BRET assay” below) at 5-HT2B [3] (Not Active) is on record as “Not Active”.
The matching figures for `CCCn1cc(CCN(C)C)c2c(O)cccc21` [Example 4, 3-(2-(dimethylamino)ethyl)-1-propyl-1H-indol-4-ol]: 3 nM, 1150 nM, 67%, 37% and “Not Active”.
In the case of `CCCCn1cc(CCN(C)C)c2c(O)cccc21` [Example 6, 1-butyl-3-(2-(dimethylamino)ethyl)-1H-indol-4-ol, reference compound], on 5-HT2C [4], the EC50 was around 600 nM. Besides, at 5-HT2C [1], half-maximal inhibition (IC50) was put at 1.61 nM and the Emax turned out to be 48%. In addition, the “5-HT2 Gq Dissociation BRET assay” value at 5-HT2B [3] was “Not Active”. Further, at 5-HT2A [2], the midpoint of inhibition, the IC50, lay at 1800 nM and the Emax amounted to 18%.
For `CN(C)CCc1cn(CC2CC2)c2cccc(O)c12` [Example 8, 1-(cyclopropylmethyl)-3-(2-(dimethylamino)ethyl)-1H-indol-4-ol], the IC50 on 5-HT2C [1] (setting [7]) stood at 0.12 nM; against 5-HT2A [2], 28 nM. Further, the Emax on 5-HT2C [1] amounted to 50%; on 5-HT2A [2] it was 29%. Further, the “5-HT2 Gq Dissociation BRET assay” value at 5-HT2B [3] (Not Active) is “Not Active”.
As for `CN(C)CCc1cn(C2CCC2)c2cccc(O)c12` [Example 9, 1-cyclobutyl-3-(2-(dimethylamino)ethyl)-1H-indol-4-ol], the results for the IC50 on 5-HT2C [1] (setting [7]) and against 5-HT2A [2] were 3 nM and 4050 nM, respectively. Further, the Emax on 5-HT2C [1] is 44%; on 5-HT2A [2], 53%. Further, the “5-HT2 Gq Dissociation BRET assay” value at 5-HT2B [3] (Not Active) is listed as “Not Active”.
The matching figures for `CN(C)CCc1cn(C2COC2)c2cccc(O)c12` [Example 10, 3-(2-(dimethylamino)ethyl)-1-(oxetan-3-yl)-1H-indol-4-ol]: 1070 nM, 4000 nM, 60%, 50% and “Not Active”.
`CCN(C)CCc1cn(C)c2cccc(O)c12` [Example 12, 3-(2-(ethyl(methyl)amino)ethyl)-1-methyl-1H-indol-4-ol hydrochloride]: the IC50 on 5-HT2C [1] (setting [7]) was 2.8 nM; on 5-HT2B [3] it was 83 nM; at 5-HT2A [2] it was 133 nM. Further, the Emax on 5-HT2C [1] came to 84%; on 5-HT2B [3], 44%; at 5-HT2A [2] it was 66%.
As to `CC(C)N(C)CCc1cn(C)c2cccc(O)c12` [Example 13, 3-(2-(isopropyl(methyl)amino)ethyl)-1-methyl-1H-indol-4-ol hydrochloride], the IC50 on 5-HT2C [1] (setting [7]) worked out at 63.5 nM; on 5-HT2B [3], 42.1 nM; on 5-HT2A [2], 112 nM. In addition, the values for the Emax on 5-HT2C [1], on 5-HT2B [3] and at 5-HT2A [2] were 105%, 83% and 85%, respectively.
For the compound `CC(C)N(CCc1cn(C)c2cccc(O)c12)C(C)C` [Example 14, 3-(2-(diisopropylamino)ethyl)-1-methyl-1H-indol-4-ol hydrochloride], the IC50 on 5-HT2C [1] (setting [7]) worked out at 393 nM; at 5-HT2B [3] it was 49.1 nM; at 5-HT2A [2], 253 nM. Moreover, the Emax at 5-HT2C [1] was found to be 98%; at 5-HT2B [3], 68%; at 5-HT2A [2], 92%.
`CN(CCc1cn(C)c2cccc(O)c12)CC1CC1` [Example 16, 3-(2-((cyclopropylmethyl)(methyl)amino)ethyl)-1-methyl-1H-indol-4-ol hydrochloride]: the IC50 was found to be 14.9 nM on 5-HT2C [1] (setting [7]), 0.245 nM on 5-HT2B [3] and 140 nM against 5-HT2A [2]. In addition, the Emax turned out to be 54% on 5-HT2C [1], 19% at 5-HT2B [3] and 55% on 5-HT2A [2].
Take `CN(CCc1cn(C)c2cccc(O)c12)CC(F)F` [Example 17, 3-(2-((2,2-difluoroethyl)(methyl)amino)ethyl)-1-methyl-1H-indol-4-ol hydrochloride]: the IC50 on 5-HT2C [1] (setting [7]) stood at 833 nM; at 5-HT2B [3], 376 nM; against 5-HT2A [2], 8400 nM. For the same compound, the Emax came out at 66% on 5-HT2C [1], 24% at 5-HT2B [3] and 54% on 5-HT2A [2].
For `CCN(CC)CCc1cn(C)c2cccc(O)c12` [Example 18, 3-(2-(diethylamino)ethyl)-1-methyl-1H-indol-4-ol hydrochloride], the IC50 on 5-HT2C [1] (setting [7]) stood at 31 nM; on 5-HT2B [3] it was 64 nM; against 5-HT2A [2] it was 241 nM. In addition, the results for the Emax on 5-HT2C [1], on 5-HT2B [3] and at 5-HT2A [2] were 70%, 56% and 60%, respectively.
`Cn1cc(CCNCC2CC2)c2c(O)cccc21` [Example 21, 3-(2-((cyclopropylmethyl)amino)ethyl)-1-methyl-1H-indol-4-ol hydrochloride]: the IC50 on 5-HT2C [1] (setting [7]) was determined as 15 nM; on 5-HT2B [3] it was 328 nM; against 5-HT2A [2], 497 nM. Moreover, the Emax at 5-HT2C [1] came out at 40%; on 5-HT2B [3], 46%; at 5-HT2A [2], 61%.
In the case of `Cn1cc(CCNCC(F)F)c2c(O)cccc21` [Example 22, 3-(2-((2,2-difluoroethyl)amino)ethyl)-1-methyl-1H-indol-4-ol hydrochloride], the IC50 is 1890 nM at 5-HT2C [1] (setting [7]), 1420 nM at 5-HT2B [3] and 4200 nM against 5-HT2A [2]. Also, the Emax at 5-HT2C [1] came out at 82%; at 5-HT2B [3], 75%; on 5-HT2A [2], 78%.
With `COc1ccccc1CNCCc1cn(C)c2cccc(O)c12` [Example 24, 3-(2-((2-methoxybenzyl)amino)ethyl)-1-methyl-1H-indol-4-ol hydrochloride], the 50% inhibitory concentration (IC50) at 5-HT2C [1] (setting [7]) was 1.6 nM; at 5-HT2B [3], 8.3 nM; on 5-HT2A [2], 10 nM. Moreover, the results for the Emax at 5-HT2C [1], on 5-HT2B [3] and on 5-HT2A [2] were 115%, 56% and 93%, respectively.
As for `COc1ccccc1CN(C)CCc1cn(C)c2cccc(O)c12` [Example 25, 3-(2-((2-methoxybenzyl)(methyl)amino)ethyl)-1-methyl-1H-indol-4-ol hydrochloride], the values for the IC50 on 5-HT2C [1] (setting [7]), on 5-HT2B [3] and at 5-HT2A [2] were 2.4 nM, 4000 nM and 770 nM, respectively. Also, the Emax at 5-HT2C [1] stood at 70%; on 5-HT2B [3] it was 14%; on 5-HT2A [2], 39%.
On to `C[C@H]1CNCCc2ccc(Cl)cc21` [Locaserin], for which the “risk of cardiac valvulopathy” value in the series on patients is on record as “no increased risk of cardiac valvulopathy”.
As for `CN(C)CCc1c[nH]c2cccc(O)c12` [Psilocin, psilocin], in the series with dopamine receptors, the “effect on dopamine receptors” value is given as “no significant effect on dopamine receptors”. The Ki at 5-HT3 was above 10000 nM. Also, the “Efficacy (in parentheses), 5-HT2B” value at 5-HT2B [5] is 45%. Further, the “% efficacy vs 5-HT@ 100%, 5-HT2B” value at 5-HT2B [3] is reported as 1.07 nM (63%). In addition, the “Efficacy (in parentheses), 5-HT2A” value at 5-HT2A [6] is reported as 43%.

These data come from patent publication US20230140635A1, “3-(2-(Aminoethyl)-Indol-4-ol Derivatives, Methods of Preparation Thereof, and the Use as 5-HT2 Receptor Modulators” (priority 2020, published 2023).
